The data set is described as follows: Solubility of torasemide as a function of pH. The data set is classed as physicochemical. Conditions: pH between about 2 and 7 (FIG. 1). The text has this: Moreover, the solubility of torasemide depends on the pH of the solution. The stability of torasemide in solution is, moreover, a function of the additives and excipients used in the composition. Thus, torasemide is insoluble at a pH between about 2 and 7 (FIG. 1).

Consider `Cc1cccc(Nc2ccncc2S(=O)(=O)NC(=O)NC(C)C)c1` [torasemide, 1-isopropyl-3-[(4-m-toluidino-3-pyridyl)sulfonyl]urea], for which the Solubility of torasemide entry is listed as “insoluble”.

Values taken from US11337921B2, “Multi-use torasemide composition” (VETOQUINOL SA, priority 2018, dated 2022).
